Experimental data as given in the NIST ThermoML archive (doi:10.1021/je050050p).

Experiment: xn = mol fraction of the nth substance listed
Settings: Liquid, Vibrating tube method

CN(C)C=O [dimethylformamide] + O=C=O
Settings | mass density [kg/m3]
323.07 K, 21005 kPa, x2 = 0.6235 | 955.83
323.07 K, 22029 kPa, x2 = 0.6235 | 957.78
323.07 K, 23012 kPa, x2 = 0.6235 | 959.63
323.07 K, 24020 kPa, x2 = 0.6235 | 961.47
323.07 K, 24979 kPa, x2 = 0.6235 | 963.24
323.08 K, 11047 kPa, x2 = 0.8091 | 888.99
323.08 K, 12004 kPa, x2 = 0.8091 | 893.47
323.08 K, 13042 kPa, x2 = 0.8091 | 898.2
323.08 K, 14006 kPa, x2 = 0.8091 | 902.33
323.08 K, 15005 kPa, x2 = 0.8091 | 906.31
323.08 K, 16016 kPa, x2 = 0.8091 | 910.13
323.08 K, 16989 kPa, x2 = 0.8091 | 913.66
323.08 K, 18023 kPa, x2 = 0.8091 | 917.28
323.08 K, 18997 kPa, x2 = 0.8091 | 920.57
323.08 K, 20018 kPa, x2 = 0.8091 | 923.89
323.08 K, 21002 kPa, x2 = 0.8091 | 927.01
323.08 K, 22041 kPa, x2 = 0.8091 | 930.23
323.08 K, 22980 kPa, x2 = 0.8091 | 933.13
323.08 K, 23989 kPa, x2 = 0.8091 | 936
323.08 K, 25049 kPa, x2 = 0.8091 | 939.12
323.09 K, 7005 kPa, x2 = 0.4268 | 942.62
323.09 K, 7062 kPa, x2 = 0.4461 | 942.94
323.09 K, 7958 kPa, x2 = 0.4461 | 944.11
323.09 K, 8007 kPa, x2 = 0.4268 | 943.86
323.09 K, 9005 kPa, x2 = 0.4268 | 944.97
323.09 K, 9022 kPa, x2 = 0.4461 | 945.39
323.09 K, 9996 kPa, x2 = 0.4268 | 946.2
323.09 K, 9998 kPa, x2 = 0.4461 | 946.6
323.09 K, 11005 kPa, x2 = 0.4461 | 947.83
323.09 K, 11020 kPa, x2 = 0.4268 | 947.43
323.09 K, 12000 kPa, x2 = 0.4268 | 948.52
323.09 K, 12017 kPa, x2 = 0.9311 | 797.65
323.09 K, 12039 kPa, x2 = 0.4461 | 949.09
323.09 K, 13002 kPa, x2 = 0.4461 | 950.23
323.09 K, 13010 kPa, x2 = 0.9311 | 810.33
323.09 K, 13035 kPa, x2 = 0.4268 | 949.74
323.09 K, 14007 kPa, x2 = 0.4268 | 950.83
323.09 K, 14007 kPa, x2 = 0.4461 | 951.42
323.09 K, 14016 kPa, x2 = 0.9311 | 821.48
323.09 K, 14996 kPa, x2 = 0.4461 | 952.54
323.09 K, 15005 kPa, x2 = 0.9311 | 831.25
323.09 K, 15007 kPa, x2 = 0.4268 | 951.95
323.09 K, 15987 kPa, x2 = 0.4268 | 952.99
323.09 K, 16001 kPa, x2 = 0.4461 | 953.67
323.09 K, 16036 kPa, x2 = 0.9311 | 840.41
323.09 K, 16984 kPa, x2 = 0.4268 | 954.11
323.09 K, 17004 kPa, x2 = 0.4461 | 954.83
323.09 K, 17025 kPa, x2 = 0.9311 | 848.46
323.09 K, 17998 kPa, x2 = 0.4268 | 955.17
323.09 K, 18000 kPa, x2 = 0.4461 | 955.98
323.09 K, 18021 kPa, x2 = 0.9311 | 855.96
323.09 K, 18994 kPa, x2 = 0.4461 | 957.05
323.09 K, 19034 kPa, x2 = 0.9311 | 863.06
323.09 K, 19040 kPa, x2 = 0.4268 | 956.31
323.09 K, 20010 kPa, x2 = 0.9311 | 869.5
323.09 K, 20031 kPa, x2 = 0.4461 | 958.19
323.09 K, 20050 kPa, x2 = 0.4268 | 957.38
323.09 K, 21020 kPa, x2 = 0.4461 | 959.24
323.09 K, 21029 kPa, x2 = 0.9311 | 875.82
323.09 K, 21048 kPa, x2 = 0.4268 | 958.44
323.09 K, 22009 kPa, x2 = 0.9311 | 881.6
323.09 K, 22029 kPa, x2 = 0.4461 | 960.34
323.09 K, 22041 kPa, x2 = 0.4268 | 959.46
323.09 K, 23008 kPa, x2 = 0.4461 | 961.38
323.09 K, 23037 kPa, x2 = 0.4268 | 960.49
323.09 K, 23050 kPa, x2 = 0.9311 | 887.36
323.09 K, 23995 kPa, x2 = 0.9311 | 892.39
323.09 K, 24019 kPa, x2 = 0.4461 | 962.44
323.09 K, 24061 kPa, x2 = 0.4268 | 961.52
323.09 K, 25007 kPa, x2 = 0.4461 | 963.48
323.09 K, 25036 kPa, x2 = 0.4268 | 962.52
323.09 K, 25056 kPa, x2 = 0.9311 | 897.78
323.1 K, 7005 kPa, x2 = 0.4502 | 942.87
323.1 K, 7058 kPa, x2 = 0.4068 | 942.59
323.1 K, 8007 kPa, x2 = 0.4068 | 943.65
323.1 K, 8009 kPa, x2 = 0.4502 | 944.1
323.1 K, 9003 kPa, x2 = 0.4502 | 945.32
323.1 K, 9034 kPa, x2 = 0.4068 | 944.82
323.1 K, 10001 kPa, x2 = 0.4068 | 945.91
323.1 K, 10005 kPa, x2 = 0.4502 | 946.57
323.1 K, 11002 kPa, x2 = 0.4502 | 947.78
323.1 K, 11013 kPa, x2 = 0.4068 | 947.04
323.1 K, 12000 kPa, x2 = 0.4068 | 948.11
